Experimental data: patent US20230057984A1, “NORMALIZATION OF CULTURE OF CORNEAL ENDOTHELIAL CELLS” (KYOTO PREFECTURAL PUBLIC UNIVERSITY CORPORATION, priority 2011, published 2023)
Like-named read-outs stand apart in the source and are kept apart here.

What was measured:
Smad2 = experiment: Addition of TGF-β to monkey corneal endothelial cells: Western blot of pSmad2/Smad2 (Example 4); type: cell-based, cynomolgus monkey; conditions: monkey CEC, TGF-β 0, 1, 10 ng/ml
[1] = test system: monkey corneal endothelial cells; experiment: Addition of TGF-β to monkey corneal endothelial cells: cell form and immunostaining (Example 4); type: cell-based, cynomolgus monkey
[2] = test system: monkey corneal endothelial cells; experiment: Addition of TGF-β to monkey corneal endothelial cells: Western blot of Na+/K+-ATPase and ZO-1 (Example 4); type: cell-based, cynomolgus monkey; conditions: monkey CEC, TGF-β 0, 1, 3, 10, 30 ng/ml, concentration dependent
[3] = test system: Human corneal endothelial cells; experiment: Culture of human corneal endothelial cells with SB203580 in conjunction with SB431542 (Example 7); type: cell-based; conditions: HCEC
Procedure: Corneal endothelial cells were mechanically exfoliated together with basement membranes from research corneas purchased from the Seattle bank, followed by exfoliating from the basement membranes using collagenase for collection, and then primary culturing. […] In addition, culturing was performed using a base culture medium with SB431542 (1 μmol/l, TOCRIS, catalog number:1614) added thereto, with SB203580 (1 μmol/l, CALBIOCHEM, catalog number: 559389) added thereto, and with SB431542 (1 μmol/l) and SB203580 (1 μmol/l) added thereto.

[4] = test system: Human corneal endothelial cells; conditions: HCEC after subculturing
Procedure: Next, subculturing was performed with trypsin. Comparison was made between cells cultured in Opti-MEM I Reduced-Serum Medium, Liquid (INVITROGEN catalog number: 31985-070)+8% fetal bovine serum (FBS) (BIOWEST, catalog number: S1820-500)+[…] CaCl2.2H2O (SIGMA catalog number: C7902-500G)+0.08% chondroitin sulfuric acid (SIGMA catalog number: C9819-5G)+20 μg ascorbic acid (SIGMA catalog number: A4544-25G)+50 μg/ml gentamicin (INVITROGEN catalog number: 15710-064)+5 ng/ml EGF (INVITROGEN catalog number: PHG0311) as a normal culture medium, and cells cultured in the above-mentioned culture medium with Smad3 inhibitor (0.3 mM and 3 mM) added thereto.

[5] = test system: corneal endothelial failure model (bullous keratopathy model); experiment: Transplantation of cultured human corneal endothelial cells to cynomolgus monkey bullous keratopathy model (Example 9); type: in vivo
From the text: Under general anesthesia, the peripheral portion of a cornea of a cynomolgus monkey is cut by 1.5 mm, and a silicon surgical instrument is inserted into an anterior chamber to mechanically currete a corneal endothelial cell, thus creating a bullous keratopathy model. Next, of human corneal endothelial cells cultured by the method according to the present invention ex vivo, 2.0×10^5 were suspended in a basal culture medium, and a ROCK inhibitor having an adhesion promoting effect, Y-27632, was added thereto such that the final concentration would be 100 μmol/l, followed by introduction into the anterior chamber. As a control, 2.0×10^5 human corneal endothelial cells, suspended in a basal culture medium, were introduced without a ROCK inhibitor. After introduction, the model was maintained with its head down for three hours so that the eyeball would be downwards, thus promoting cellular adhesion to the corneal endothelium surface. Therapeutic effects of bullous keratopathy by transplanting a cultured corneal endothelium sheet was evaluated by corneal transparency evaluation through a slit-lamp microscope, and corneal thickness measurement using a ultrasonic tachymeter (FIG. 14). […] Then, similar to Example 2, immunostaining was performed directed to phalloidin, Na^+/K^+-ATPase and ZO-1, followed by taking images using a fluorescence microscope (FIG. 15). […]

[6] = test system: Human corneal endothelial cells; experiment: Culture of human corneal endothelial cells with BMP-7: phase-contrast and phalloidin staining (Example 6); type: cell-based
Procedure: (§1) Next, by using three different concentrations, BMP7 was able to suppress the change in a HCEC to a fibroblast phenotype and to maintain the function thereof. […] Thus, this molecule is used to antagonize an EMT process [Zeisberg M, et al. (2003) Nat Med 9: 964-968], [Simic P, et al. (2007) EMBO Rep 8: 327-331], [Buijs J T, et al. (2007) Am J Pathol 171: 1047-1057], [Zeisberg M, et al. (2007) J Biol Chem 282: 23337-23347]. […] Fibroblast-like HCEC was treated with BMP-7 in the concentration ranging from 10 to 1,000 ng/ml.

[7] = test system: Human corneal endothelial cells; experiment: Na+/K+-ATPase and ZO-1 staining of human corneal endothelial cells treated with BMP-7 (FIG. 10A C-F); type: cell-based
Procedure: For tissue staining examination, cultured MCECs or HCECs were put into Lab-Tek™ Chamber Slides™ (NUNC A/S, Roskilde, Denmark), fixed with 4% formaldehyde for 10 minutes at a room temperature (RT), and incubated for 30 minutes with 1% bovine serum albumin (BSA). Specifically, cultured MCECs or HCECs on the Lab-Tek™ Chamber Slides™ (NUNCA/S, Roskilde, Denmark) were fixed at a room temperature for 10 minutes in 4% formaldehyde, followed by incubation for 30 minutes together with 1% bovine serum albumin (BSA). In order to examine the phenotype of CEC, immunohistochemical analysis was directed to a protein associated with tight junction, ZO-1 (Zymed Laboratories, Inc., South San Francisco, Calif.), a protein associated with the pumping function, Na^+/K^+-ATPase (Upstate Biotec, Inc., Lake Placid, N.Y.), fibronectin (BD, Franklin Lakes, N.J.), and actine. As markers associated with the function of CEC, ZO-1 and Na^+/K^+-ATPase were used; fibronectin and type 1 collagen were used to evaluate the change in a fibroblastic manner; and staining of actine was used to evaluate the phenotype of the cells. Staining of ZO-1, Na^+/K^+-ATPase, type 1 collagen and fibronectin was each performed using 1:200 dilution of ZO-1 polyclonal antibody, Na^+/K^+-ATPase monoclonal antibody, and fibronectin monoclonal antibody. As to secondary antibody, 1:2000 dilution of Alexa Fluor (registered trademark) 488 label or Alexa Fluor (registered trademark) 594 label goat antimouse IgG (Life Technologies) was used. Staining of actine was performed using 1:400 dilution of Alexa Fluor (registered trademark) 488 label phalloidin (Life Technologies). Next, the nucleus of each cell was stained with DAPI (Vector Laboratories, Inc., Burlingame, Calif.) or PI (Sigma-Aldrich). Next, the slides were observed through a fluorescence microscope (TCS SP2 AOBS; Leica Microsystems, Welzlar, Germany).
as §1

[8] = fibroblast-like HCEC, BMP-7 10 to 1,000 ng/ml
[9] = HCEC, three concentrations of BMP-7 vs additive-free control

Molecule: TGF-β: transforming growth factor-β, R&D SYSTEMS catalog number 240-B, added to induce transformation
- phosphorylation of Smad2 (Western blot) (Smad2): greatly increased in the concentration dependent form
- cell form of normal phenotype after exposure to exogenous TGF-β ([1]; monkey CEC cultured to sub-confluency, TGF-β1 0, 1, 10 ng/mL): transformed into a fibroblast-like cell
- staining patterns of Na+/K+-ATPase and ZO-1 in plasma membranes ([1]; monkey CEC normal phenotype exposed to TGF-β): completely lost
- expression of Na+/K+-ATPase and ZO-1 at the protein level (Western blot) [2]: significantly decreased

Molecule: C[S+]([O-])c1ccc(-c2nc(-c3ccc(F)cc3)c(-c3ccncc3)[nH]2)cc1 (centres unmarked) [SB203580, 4-[4-(4-fluorophenyl)-2-(4-methylsulfinylphenyl)-1H-imidazole-5-yl]pyridine]
- corneal endothelium density ([3]; SB203580 1 μmol/l added to SB431542 1 μmol/l): increased
- culture normalization ([3]; SB203580 1 μmol/l in conjunction with SB431542 1 μmol/l, repeated subculturing): culture normalization was enhanced

Molecule: COc1cc2c(cc1OC)CN(C(=O)/C=C/c1c(-c3ccccc3)n(C)c3ncccc13)CC2 [Smad3 inhibitor, 6,7-dimethoxy-2-((2E)-3-(1-methyl-2-phenyl-1H-pyrrolo[2,3-b]pyridine-3-yl-prop-2-enoyl))-1,2,3,4-tetrahydroiso quinolone]
- cell form (phase-contrast microscope) ([4]; Smad3 inhibitor 0.3 mM vs normal culture medium): a layer of polygonal cells with high density were maintained
- cell form (phase-contrast microscope) ([4]; Smad3 inhibitor 3 mM vs normal culture medium): a layer of polygonal cells with high density were maintained

Molecule: C[C@@H](N)[C@H]1CC[C@H](C(=O)Nc2ccncc2)CC1.Cl.Cl.O (relative stereo) [Y-27632, (R)-(+)-trans-(4-pyridyl)-4-(1-aminoethyl)-cyclohexanecarboxamide 2 hydrochloride 1 hydrate]
- therapeutic result: corneal transparency (slit-lamp microscope) and corneal thickness ([5]; 2.0×10^5 cultured human corneal endothelial cells into anterior chamber, with or without Y-27632 100 μmol/l): further improved
- therapeutic result: immunostaining of phalloidin, Na+/K+-ATPase and ZO-1 of extracted corneas ([5]; 2.5 months after introduction, cells alone or cells + ROCK inhibitor): further improved

B1: BMP-7: bone morphogenic protein 7, anti-EMT factor, R&D SYSTEMS catalog number 354-BP (protein, UniProt P18075 293-431, looked up)
Bone morphogenetic protein 7: STGSKQRSQNRSKTPKNQEALRMANVAENSSSDQRQACKKHELYVSFRDLGWQDWIIAPEGYAAYYCEGECAFPLNSYMNATNHAIVQTLVHFINPETVPKPCCAPTQLNAISVLYFDDSSNVILKKYRNMVVRACGCH
- cell form (phalloidin staining and phase-contrast microscope) ([6]; HCEC subcultured in conditioned culture medium with BMP-7 100 ng/ml, control transformed, multi-layered): the form of a layer of polygonal cells was maintained
- cell form and actine cytoskeleton distribution (phalloidin staining) [6, 8]: allowed for a normal hexagonal cell form, and allowed for cytoskeleton distribution on the cell surface of actine
- elongated cell form of fibroblast phenotype (phase-contrast) ([6]; fibroblast-like HCEC, BMP-7 10 to 1,000 ng/ml, concentration-dependent manner): converted into a polygonal cell form
- harmful effects with regard to the forms or functions (HCEC): not seen any clear, harmful effects
- maintaining CEC in polygonal form and contact inhibition phenotype with positive expression of function-associated marker ([7]; HCEC, BMP-7 10 ng/ml): tendency was seen
- maintaining CEC in polygonal form and contact inhibition phenotype with positive expression of function-associated marker ([7]; HCEC, BMP-7 100 ng/ml): tendency increased
- maintaining CEC in polygonal form and contact inhibition phenotype with positive expression of function-associated marker ([7]; HCEC, BMP-7 1,000 ng/ml): tendency was more significant
- percentage of Na+/K+-ATPase positive cell [7, 9]: significantly increased
- percentage of ZO-1 positive cell [7, 9]: significantly increased
- intracellular localization of Na+/K+-ATPase and ZO-1 [7, 8]: maintained the intracellular localization of Na^+/K^+-ATPase and ZO-1 in a cell membrane
